Among the data in patent publication US5763460A, “N-(piperidinyl-1-alkyl)-substituted cyclohexane carboxylic acid amides as 5-htia receptor antagonists” (John Wyeth & Brother Limited, priority 1993, dated 1998) are IC50 and pA2 values, retold here.

For test [1], the target named is T1, 5-HT1A receptor (Rattus norvegicus, UniProt P19327).
T1 construct: rat hippocampal membrane homogenate; from tissue; host or cells: rat hippocampal membrane homogenate
T1 sequence (P19327 1-422): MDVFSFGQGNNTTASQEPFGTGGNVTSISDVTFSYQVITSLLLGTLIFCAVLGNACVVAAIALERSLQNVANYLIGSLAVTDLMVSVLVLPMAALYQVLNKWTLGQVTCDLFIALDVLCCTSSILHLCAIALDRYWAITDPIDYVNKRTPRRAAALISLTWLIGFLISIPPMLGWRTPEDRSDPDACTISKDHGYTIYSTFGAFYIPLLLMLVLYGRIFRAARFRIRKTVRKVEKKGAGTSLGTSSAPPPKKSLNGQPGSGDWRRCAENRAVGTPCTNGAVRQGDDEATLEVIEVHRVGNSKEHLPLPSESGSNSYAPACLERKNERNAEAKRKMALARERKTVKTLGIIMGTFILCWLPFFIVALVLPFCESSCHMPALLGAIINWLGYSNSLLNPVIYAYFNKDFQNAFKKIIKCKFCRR
Briefly: 5-HT1A receptor binding activity in rat hippocampal membrane homogenate. The following applies: method of Alexander and Wood. As to the method: The compounds of the invention are tested for 5-HT1A receptor binding activity in rat hippocampal membrane homogenate by the method of B. S. Alexander and M. D. Wood, J Pharm Pharmacol. 1988, 40, 888-891.

Test [2] concerns α1 site. Briefly: affinity for the α1 site. Format: binding. The following applies: procedure of A. L. Marrow et al.
Test [3] has as its target T2, 5-HT1A receptor (Cavia porcellus, UniProt A0A286Y074).
T2 construct: guinea-pig ileum in vitro; from tissue; host or cells: guinea-pig ileum
T2 sequence (A0A286Y074 1-421): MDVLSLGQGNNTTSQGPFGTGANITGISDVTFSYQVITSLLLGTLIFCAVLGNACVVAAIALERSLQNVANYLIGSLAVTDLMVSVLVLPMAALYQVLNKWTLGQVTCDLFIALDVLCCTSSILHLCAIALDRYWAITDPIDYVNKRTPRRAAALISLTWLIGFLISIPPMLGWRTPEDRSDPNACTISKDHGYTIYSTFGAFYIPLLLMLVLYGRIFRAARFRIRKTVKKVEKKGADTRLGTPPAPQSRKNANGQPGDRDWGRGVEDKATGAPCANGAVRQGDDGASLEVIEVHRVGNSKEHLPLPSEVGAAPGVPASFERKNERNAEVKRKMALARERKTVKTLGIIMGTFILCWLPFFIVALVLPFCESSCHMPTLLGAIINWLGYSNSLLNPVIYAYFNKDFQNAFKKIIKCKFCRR
The test is described as follows: 5-HT1A receptor antagonism: antagonism of 5-carboxamidotryptamine in the guinea-pig ileum in vitro. As for the experimental part:
The compounds are tested for 5-HT1A receptor antagonism activity in a test involving the antagonism of 5-carboxamidotryptamine in the guinea-pig ileum in vitro (based upon the procedure of Fozard et al, Br J Pharmac, 1985, 86, 601 P).

For the compound `COc1ccccc1C1CCN([C@H](C)CN(C(=O)C2CCCCC2)c2ccccn2)CC1` [Example 1, (R)-N-(2-(1-(4-(2-Methoxyphenyl)piperidinyl))propyl)-N-(2-pyridyl)cyclohexanecarboxamide], the IC50 came out at 3.5 nM in test [1] and 858 nM in test [2]. In test [3], this compound showed a pA2 of 7.9.
